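Tested at 5 concentrations; 48 h exposure; 96-well plates; endpoints linearly interpolated, else capped at highest concentration. At the GI50, growth is halved.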 The source made the active and inactive calls. No stated cut-off is given here; in the data, active = GI50 up to about 1.1 µM and inactive = higher. A value given as a limit tells only on which side of the number the result lay.

Test systems include SK-MEL-28; MOLT-4; OVCAR-8; MDA-N; Hs-578T; M14; NCI/ADR-RES; RXF 393; SF-295; SK-MEL-5; U-251; 786-0; UACC-62; KM12; EKVX; OVCAR-3; MDA-MB-435; MDA-MB-231; SF-539; SNB-75.
What all share (test): inhibition of tumour cell growth, NCI panel, 48 h

Turning to `O=C(O)c1cc2ccccc2c(/N=N/c2ccc(S(=O)(=O)Nc3nccs3)cc2)c1O`, the GI50 in the experiment with SK-MEL-28, with MOLT-4, in the experiment with OVCAR-8, in the experiment with MDA-N, in the experiment on Hs-578T and in the experiment with M14 was > 100 µM (inactive) in each case. For the same molecule, the GI50 in the experiment on NCI/ADR-RES, in the experiment with RXF 393, in the experiment with SF-295, with SK-MEL-5, in the experiment with U-251 and with 786-0 was > 100 µM (inactive) throughout. Further, the GI50 with UACC-62, in the experiment on KM12, in the experiment on EKVX, with OVCAR-3, in the experiment with MDA-MB-435 and in the experiment with MDA-MB-231 was > 100 µM (inactive) throughout. The GI50 with SF-539 and with SNB-75 was > 100 µM (inactive) each time.
Consider `COC(=O)[C@@H]1[C@H]2CC[C@]3(C)[C@@H](OC(C)=O)CC[C@H]3[C@@H]2CC[C@H]1C1(C)SCCS1`, for which the GI50 in the experiment with SK-MEL-28 is 34.7 µM (inactive); in the experiment with MOLT-4, 24.8 µM (inactive); in the experiment with OVCAR-8, 25 µM (inactive); in the experiment with MDA-N, 22 µM (inactive); in the experiment with Hs-578T it was 23.7 µM (inactive); in the experiment with M14, 21.5 µM (inactive). For the same molecule, the GI50 with NCI/ADR-RES was 20.4 µM (inactive); in the experiment on RXF 393 it was 20.5 µM (inactive); in the experiment with SF-295 it was 24.8 µM (inactive); in the experiment with SK-MEL-5, 8.77 µM (inactive); with U-251, 23.6 µM (inactive); in the experiment on 786-0, 22.7 µM (inactive). Moreover, the GI50 was 28.2 µM (inactive) with UACC-62; 28.6 µM (inactive) with KM12; 25.1 µM (inactive) in the experiment on EKVX; 33.1 µM (inactive) in the experiment with OVCAR-3; 16.3 µM (inactive) in the experiment on MDA-MB-435; 17.1 µM (inactive) with MDA-MB-231. Besides, the GI50 is 37 µM (inactive) in the experiment with SF-539 and 37.2 µM (inactive) in the experiment with SNB-75.
As to `CC(O)/C=C/C1OC(=O)CC1Nc1ccc(C=O)cc1` (stereo unspecified), the GI50 is > 100 µM (inactive) in the experiment with SK-MEL-28; 10.8 µM (inactive) in the experiment with MOLT-4; > 100 µM (inactive) with OVCAR-8; > 100 µM (inactive) in the experiment with MDA-N; > 100 µM (inactive) in the experiment on Hs-578T; 22.3 µM (inactive) in the experiment on M14. In addition, the GI50 was > 100 µM (inactive) with NCI/ADR-RES; > 100 µM (inactive) with RXF 393; 28 µM (inactive) in the experiment with SF-295; 16.6 µM (inactive) in the experiment with SK-MEL-5; 77.6 µM (inactive) in the experiment on U-251; > 100 µM (inactive) with 786-0. The GI50 in the experiment with UACC-62 is 23.7 µM (inactive); in the experiment on KM12, > 100 µM (inactive); in the experiment on EKVX it was > 100 µM (inactive); in the experiment on OVCAR-3 it was 81.3 µM (inactive); in the experiment with MDA-MB-435, > 100 µM (inactive); in the experiment on MDA-MB-231 it was > 100 µM (inactive). Also, the GI50 in the experiment on SF-539 is 87.1 µM (inactive); in the experiment with SNB-75, > 100 µM (inactive).
Consider `O=c1ccn(CC2(CO)CC(Cc3ccccc3)C2)c(=O)[nH]1` (stereo unspecified), for which the GI50 with SK-MEL-28, in the experiment with MOLT-4, with OVCAR-8, with MDA-N, in the experiment on Hs-578T and with NCI/ADR-RES was > 100 µM (inactive) each time. In addition, the GI50 in the experiment on RXF 393, in the experiment with SF-295, with SK-MEL-5, with U-251, with 786-0 and in the experiment with UACC-62 was > 100 µM (inactive) each time. The GI50 in the experiment with KM12, in the experiment on EKVX, with OVCAR-3, in the experiment with MDA-MB-435, in the experiment on MDA-MB-231 and in the experiment with SF-539 was > 100 µM (inactive) throughout. In the experiment with SNB-75, the GI50 is > 100 µM (inactive).
On to `Nc1ncnc2c1ncn2CC(OCP(=O)(O)O)Oc1ccccc1` (stereo unspecified), for which the GI50 in the experiment with SK-MEL-28, with MDA-N, in the experiment with Hs-578T, in the experiment on M14, with NCI/ADR-RES and with RXF 393 was > 100 µM (inactive) throughout. Also, the GI50 with SF-295, with SK-MEL-5, in the experiment with U-251, with 786-0, in the experiment on UACC-62 and in the experiment with KM12 was > 100 µM (inactive) in each case. The GI50 in the experiment on EKVX, with OVCAR-3, with MDA-MB-435, in the experiment on MDA-MB-231, with SF-539 and in the experiment with SNB-75 was > 100 µM (inactive) in each case.
Turning to `CSc1ccc(/C=C2\N=C(c3ccccc3)N(c3nc4cc(Cl)c(F)cc4s3)C2=O)cc1`, the GI50 in the experiment on SK-MEL-28 was > 100 µM (inactive); with MOLT-4 it was 29.6 µM (inactive); with OVCAR-8, 20 µM (inactive); with MDA-N it was 30.3 µM (inactive); with Hs-578T, 21.7 µM (inactive); in the experiment on M14 it was 58.3 µM (inactive). In addition, the GI50 with NCI/ADR-RES is 32.2 µM (inactive); with RXF 393, 19.1 µM (inactive); in the experiment with SF-295, 51.2 µM (inactive); in the experiment with SK-MEL-5, 28.4 µM (inactive); in the experiment on U-251 it was 19.6 µM (inactive); with 786-0, 63.1 µM (inactive). For the same molecule, the GI50 in the experiment with UACC-62 is 43.6 µM (inactive); in the experiment on KM12, 31.4 µM (inactive); in the experiment on EKVX, 28.3 µM (inactive); in the experiment on OVCAR-3, 19.8 µM (inactive); in the experiment on MDA-MB-435, 33 µM (inactive); in the experiment with MDA-MB-231, 30.8 µM (inactive). Also, the results for the GI50 in the experiment on SF-539 and in the experiment with SNB-75 were 26.3 µM (inactive) and 25 µM (inactive), respectively.
On to `NC[C@H]1Nc2ccccc2[C@@H](O)C1O` (stereo partly specified), for which the GI50 in the experiment with SK-MEL-28, with MOLT-4, in the experiment on OVCAR-8, with MDA-N, in the experiment with Hs-578T and in the experiment on M14 was > 100 µM (inactive) throughout. The GI50 in the experiment on NCI/ADR-RES, in the experiment with RXF 393, in the experiment with SF-295, in the experiment on SK-MEL-5, in the experiment on U-251 and in the experiment on 786-0 was > 100 µM (inactive) throughout. Also, the GI50 in the experiment on UACC-62, with KM12, in the experiment on EKVX, in the experiment with OVCAR-3, with MDA-MB-435 and with MDA-MB-231 was > 100 µM (inactive) each time. Also, the GI50 with SF-539 and in the experiment on SNB-75 was > 100 µM (inactive) each time.
On to `CC(=O)O[C@H]1[C@@H]2OC(=O)[C@@](O)(CC3CCCO3)[C@@H]2CC(=O)[C@](C)(O)CC/C=C(\C)CCC[C@@H]1C` (stereo partly specified), for which the GI50 in the experiment with SK-MEL-28 is 20.3 µM (inactive); in the experiment with OVCAR-8, 35.6 µM (inactive); with MDA-N, 20.6 µM (inactive); with Hs-578T, 63.4 µM (inactive); in the experiment on M14, 40.4 µM (inactive); in the experiment with NCI/ADR-RES it was 57.9 µM (inactive). For the same molecule, the GI50 in the experiment with RXF 393 was 20 µM (inactive); with SF-295 it was 77.3 µM (inactive); with SK-MEL-5, 43.6 µM (inactive); in the experiment on U-251, 69.8 µM (inactive); in the experiment on 786-0 it was 37.9 µM (inactive); with UACC-62, 67.3 µM (inactive). Further, the GI50 in the experiment on KM12 was 67.6 µM (inactive); in the experiment on EKVX it was 52.8 µM (inactive); with OVCAR-3, 63.2 µM (inactive); in the experiment with MDA-MB-435 it was 31.7 µM (inactive); in the experiment on MDA-MB-231 it was 20.7 µM (inactive); in the experiment with SF-539, 19.1 µM (inactive). Moreover, in the experiment on SNB-75, the GI50 was 97.5 µM (inactive).
For `C=C1OC(=O)[C@]2([C@@H](/C=C/C)C=CC(=O)[C@H]2O)[C@@H]1O`, the GI50 with SK-MEL-28, with MOLT-4, in the experiment with OVCAR-8, in the experiment on MDA-N, in the experiment on Hs-578T and in the experiment on M14 was > 100 µM (inactive) in each case. The GI50 in the experiment on NCI/ADR-RES, with RXF 393, with SF-295, with SK-MEL-5, in the experiment on U-251 and in the experiment with 786-0 was > 100 µM (inactive) in each case. The GI50 with UACC-62, with KM12, with EKVX, in the experiment on OVCAR-3, in the experiment on MDA-MB-435 and in the experiment on MDA-MB-231 was > 100 µM (inactive) each time. In addition, the GI50 in the experiment with SF-539 and with SNB-75 was > 100 µM (inactive) each time.
In the case of `COc1cc2cc(C(=O)N3CC(CCl)c4c3cc(N(C)C)c3ccccc43)[nH]c2c(OC)c1OC` (stereo unspecified), the GI50 was 0.0483 µM (active) in the experiment with SK-MEL-28; < 0.01 µM (active) in the experiment on MOLT-4; < 0.01 µM (active) in the experiment on OVCAR-8; 0.0169 µM (active) in the experiment with MDA-N; 0.0199 µM (active) in the experiment on Hs-578T; < 0.01 µM (active) with M14. The GI50 in the experiment with NCI/ADR-RES was < 0.01 µM (active); in the experiment on RXF 393, 0.0137 µM (active); with SF-295, < 0.01 µM (active); in the experiment on SK-MEL-5 it was < 0.01 µM (active); in the experiment on U-251, < 0.01 µM (active); in the experiment with 786-0 it was < 0.01 µM (active). Also, the GI50 in the experiment with UACC-62 is < 0.01 µM (active); in the experiment on KM12 it was 0.0117 µM (active); with EKVX it was < 0.01 µM (active); in the experiment with OVCAR-3, 0.0127 µM (active); in the experiment with MDA-MB-435, 0.0146 µM (active); in the experiment with MDA-MB-231 it was 0.0378 µM (active). The GI50 was 0.0131 µM (active) in the experiment with SF-539 and < 0.01 µM (active) in the experiment on SNB-75.

(Values after ChEMBL document CHEMBL1201862, “PubChem BioAssay data set” (2004).)
